{"source": "patent US8937072B2", "about": "“Substituted cyanoaniline compounds, preparation and use thereof” (Sinochem Corporation, priority 2011, dated 2015)", "key": {"[1]": {"test_system": "cucumber downy mildew", "assay": "Protectant activity in vivo (whole plant) against cucumber downy mildew", "description": "(§1) The method is as followed: The whole plant is used in this test. The compound is dissolved in a proper solvent to get mother solution. The proper solvent is selected from acetone, methanol, DMF and so on according to their dissolving capability to the sample. The volume rate of solvent and testing solution (v/v) is equal to or less than 5%. The mother solution is diluted with water containing 0.1% tween-80 to get the testing solution whose concentration is designed. The testing solution is sprayed to the host plant by a special plant sprayer. The plant is inoculated with fungus after 24 hours. According to the infecting characteristic of fungus, the plant is stored in a humidity chamber and then transferred into greenhouse after infection is finished. And the other plants are placed in greenhouse directly. The activity of compound is obtained by eyeballing after 7 days in common."}, "[2]": {"test_system": "corn rust", "assay": "Protectant activity in vivo (whole plant) against corn rust", "description": "as §1"}}, "note": "Where “and” joins values, the source holds several entries; their conditions need not be identical. Identical values can stand only once."}
{"smiles": "N#Cc1c(F)c(F)c(Nc2c(Br)cc([N+](=O)[O-])cc2Br)c(C#N)c1F", "note": "[Compound B-115]", "values": [{"measurement": "protectant activity against cucumber downy mildew in vivo", "setting": "[1]; dose 400 mg/L", "value": 100, "unit": "%"}]}
{"smiles": "N#Cc1cc([N+](=O)[O-])cc(Br)c1Nc1c(F)c(F)c(C#N)c(F)c1C#N", "note": "[Compound B-116]", "values": [{"measurement": "protectant activity against cucumber downy mildew in vivo", "setting": "[1]; dose 400 mg/L", "value": 100, "unit": "%"}]}
{"smiles": "N#Cc1c(Cl)c(Cl)c(Nc2ncc(C(F)(F)F)cc2Cl)c(C#N)c1Cl", "note": "[Compound B-125]", "values": [{"measurement": "protectant activity against cucumber downy mildew in vivo", "setting": "[1]; dose 50 mg/L", "value": 98, "unit": "%"}, {"measurement": "protectant activity against cucumber downy mildew in vivo", "setting": "[1]; dose 100 mg/L", "value": 100, "unit": "%"}, {"measurement": "protectant activity against cucumber downy mildew in vivo", "setting": "[1]; dose 400 mg/L", "value": 100, "unit": "%"}]}
{"smiles": "N#Cc1c(Cl)c(Cl)c(Nc2c(Cl)cncc2Cl)c(C#N)c1Cl", "note": "[Compound B-139]", "values": [{"measurement": "the protectant activity (%) against cucumber downy mildew", "setting": "[1]; 12.5 mg/L", "value": 100, "unit": "%"}, {"measurement": "the protectant activity (%) against cucumber downy mildew", "setting": "[1]; 25 mg/L", "value": 98, "unit": "%"}, {"measurement": "the protectant activity (%) against cucumber downy mildew", "setting": "[1]; 50 mg/L", "value": 98, "unit": "%"}, {"measurement": "the protectant activity (%) against cucumber downy mildew", "setting": "[1]; 100 mg/L", "value": 100, "unit": "%"}, {"measurement": "protectant activity against cucumber downy mildew in vivo", "setting": "[1]; dose 12.5 mg/L", "value": 98, "unit": "%"}, {"measurement": "protectant activity against cucumber downy mildew in vivo", "setting": "[1]; dose 50 mg/L", "value": 98, "unit": "%"}, {"measurement": "protectant activity against cucumber downy mildew in vivo", "setting": "[1]; dose 100 mg/L", "value": 100, "unit": "%"}, {"measurement": "protectant activity against cucumber downy mildew in vivo", "setting": "[1]; dose 400 mg/L", "value": 100, "unit": "%"}]}
{"smiles": "N#Cc1ccc(Nc2c(Cl)c(C#N)c(Cl)c(Cl)c2C#N)cc1", "note": "[Compound C-12]", "values": [{"measurement": "protectant activity against cucumber downy mildew in vivo", "setting": "[1]; dose 400 mg/L", "value": 100, "unit": "%"}]}
{"smiles": "N#Cc1c(Cl)c(Cl)c(C#N)c(Nc2ccc(OC(F)(F)F)cc2)c1Cl", "note": "[Compound C-13]", "values": [{"measurement": "protectant activity against cucumber downy mildew in vivo", "setting": "[1]; dose 400 mg/L", "value": 100, "unit": "%"}]}
{"smiles": "N#Cc1c(Cl)c(Cl)c(C#N)c(Nc2ccc([N+](=O)[O-])cc2Cl)c1Cl", "note": "[Compound C-28]", "values": [{"measurement": "protectant activity against cucumber downy mildew in vivo", "setting": "[1]; dose 400 mg/L", "value": 100, "unit": "%"}]}
{"smiles": "N#Cc1c(Cl)c(Cl)c(C#N)c(Nc2cc([N+](=O)[O-])ccc2Cl)c1Cl", "note": "[Compound C-29]", "values": [{"measurement": "protectant activity against corn rust in vivo", "setting": "[2]; dose 400 mg/L", "value": 80, "unit": "%"}]}
{"smiles": "N#Cc1c(Cl)c(Cl)c(C#N)c(Nc2ccc(C(F)(F)F)cc2Cl)c1Cl", "note": "[Compound C-30]", "values": [{"measurement": "protectant activity against cucumber downy mildew in vivo", "setting": "[1]; dose 100 mg/L", "value": 90, "unit": "%"}, {"measurement": "protectant activity against cucumber downy mildew in vivo", "setting": "[1]; dose 400 mg/L", "value": 100, "unit": "%"}]}
{"smiles": "N#Cc1c(Cl)c(Cl)c(C#N)c(Nc2cc(C(F)(F)F)ccc2Cl)c1Cl", "note": "[Compound C-32]", "values": [{"measurement": "protectant activity against cucumber downy mildew in vivo", "setting": "[1]; dose 400 mg/L", "value": 100, "unit": "%"}]}
{"smiles": "COc1cc([N+](=O)[O-])ccc1Nc1c(Cl)c(C#N)c(Cl)c(Cl)c1C#N", "note": "[Compound C-35]", "values": [{"measurement": "protectant activity against cucumber downy mildew in vivo", "setting": "[1]; dose 400 mg/L", "value": 100, "unit": "%"}]}
{"smiles": "N#Cc1ccc(Nc2c(Cl)c(C#N)c(Cl)c(Cl)c2C#N)cc1C(F)(F)F", "note": "[Compound C-38]", "values": [{"measurement": "protectant activity against cucumber downy mildew in vivo", "setting": "[1]; dose 100 mg/L", "value": "100% and 90%"}, {"measurement": "protectant activity against cucumber downy mildew in vivo", "setting": "[1]; dose 400 mg/L", "value": 100, "unit": "%"}]}
{"smiles": "N#Cc1c(Cl)c(Cl)c(C#N)c(Nc2ccc(Cl)c(C(F)(F)F)c2)c1Cl", "note": "[Compound C-39]", "values": [{"measurement": "protectant activity against corn rust in vivo", "setting": "[2]; dose 400 mg/L", "value": 100, "unit": "%"}]}
{"smiles": "N#Cc1c(Cl)c(Cl)c(C#N)c(Nc2c(Br)cc([N+](=O)[O-])cc2Br)c1Cl", "note": "[Compound C-41]", "values": [{"measurement": "the protectant activity (%) against corn rust", "setting": "[2]; 6.25 mg/L", "value": 50, "unit": "%"}, {"measurement": "the protectant activity (%) against corn rust", "setting": "[2]; 25 mg/L", "value": 90, "unit": "%"}, {"measurement": "the protectant activity (%) against corn rust", "setting": "[2]; 100 mg/L", "value": 100, "unit": "%"}, {"measurement": "the protectant activity (%) against corn rust", "setting": "[2]; 400 mg/L", "value": 100, "unit": "%"}, {"measurement": "protectant activity against corn rust in vivo", "setting": "[2]; dose 25 mg/L", "value": 90, "unit": "%"}, {"measurement": "protectant activity against corn rust in vivo", "setting": "[2]; dose 100 mg/L", "value": 100, "unit": "%"}, {"measurement": "protectant activity against corn rust in vivo", "setting": "[2]; dose 400 mg/L", "value": 100, "unit": "%"}]}
{"smiles": "N#Cc1c(Cl)c(Cl)c(C#N)c(Nc2ccc(F)c(F)c2F)c1Cl", "note": "[Compound C-51]", "values": [{"measurement": "protectant activity against cucumber downy mildew in vivo", "setting": "[1]; dose 400 mg/L", "value": 100, "unit": "%"}]}
{"smiles": "CNC(=O)c1cc(Cl)cc(C)c1Nc1c(Cl)c(C#N)c(Cl)c(Cl)c1C#N", "note": "[Compound C-56]", "values": [{"measurement": "protectant activity against cucumber downy mildew in vivo", "setting": "[1]; dose 400 mg/L", "value": 100, "unit": "%"}]}
{"smiles": "N#Cc1c(F)c(F)c(C#N)c(Nc2ccc([N+](=O)[O-])cc2)c1F", "note": "[Compound C-70]", "values": [{"measurement": "protectant activity against cucumber downy mildew in vivo", "setting": "[1]; dose 400 mg/L", "value": 100, "unit": "%"}]}
{"smiles": "N#Cc1c(F)c(F)c(C#N)c(Nc2ccc([N+](=O)[O-])cc2F)c1F", "note": "[Compound C-79]", "values": [{"measurement": "protectant activity against cucumber downy mildew in vivo", "setting": "[1]; dose 400 mg/L", "value": 100, "unit": "%"}]}
{"smiles": "N#Cc1c(F)c(F)c(C#N)c(Nc2cc([N+](=O)[O-])ccc2Cl)c1F", "note": "[Compound C-81]", "values": [{"measurement": "protectant activity against cucumber downy mildew in vivo", "setting": "[1]; dose 400 mg/L", "value": 100, "unit": "%"}]}
{"smiles": "COc1cc([N+](=O)[O-])ccc1Nc1c(F)c(C#N)c(F)c(F)c1C#N", "note": "[Compound C-88]", "values": [{"measurement": "protectant activity against cucumber downy mildew in vivo", "setting": "[1]; dose 50 mg/L", "value": 98, "unit": "%"}]}
{"smiles": "N#Cc1c(F)c(F)c(C#N)c(Nc2ccc(Cl)cc2[N+](=O)[O-])c1F", "note": "[Compound C-89]", "values": [{"measurement": "protectant activity against corn rust in vivo", "setting": "[2]; dose 400 mg/L", "value": 80, "unit": "%"}]}
{"smiles": "N#Cc1c(F)c(F)c(C#N)c(Nc2c(Cl)cc([N+](=O)[O-])cc2Cl)c1F", "note": "[Compound C-93]", "values": [{"measurement": "protectant activity against cucumber downy mildew in vivo", "setting": "[1]; dose 400 mg/L", "value": 100, "unit": "%"}]}
{"smiles": "N#Cc1c(F)c(F)c(C#N)c(Nc2c(Br)cc([N+](=O)[O-])cc2Br)c1F", "note": "[Compound C-96]", "values": [{"measurement": "protectant activity against cucumber downy mildew in vivo", "setting": "[1]; dose 50 mg/L", "value": 98, "unit": "%"}]}
{"smiles": "N#Cc1cc([N+](=O)[O-])cc(Br)c1Nc1c(F)c(C#N)c(F)c(F)c1C#N", "note": "[Compound C-97]", "values": [{"measurement": "protectant activity against cucumber downy mildew in vivo", "setting": "[1]; dose 400 mg/L", "value": 100, "unit": "%"}]}
{"smiles": "N#Cc1c(F)c(F)c(C#N)c(Nc2c(Cl)cc([N+](=O)[O-])cc2Br)c1F", "note": "[Compound C-99]", "values": [{"measurement": "protectant activity against corn rust in vivo", "setting": "[2]; dose 400 mg/L", "value": 100, "unit": "%"}]}
{"smiles": "N#Cc1cc(C#N)c(Nc2c(Cl)c(C#N)c(Cl)c(Cl)c2C#N)nc1Cl", "note": "[Compound C-114]", "values": [{"measurement": "protectant activity against corn rust in vivo", "setting": "[2]; dose 400 mg/L", "value": 100, "unit": "%"}]}
